Activity calls are given as the source filed them. The rule behind the calls is not given here.
Test system: rodent carcinogenicity bioassays, tumor incidence
Experiment: CCRIS carcinogenicity studies
Method in brief: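 NCI-built, expert-reviewed records of carcinogenicity and related test outcomes (mutagenicity, tumor promotion/inhibition) compiled from published and report sources, historical span 1985-2011, not updated.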

With `CCCCCN(N=O)C(=O)OCC` the carcinogen call (Species: RAT, Strain/Sex: DONRYU/FEMALE, Route: ORAL, Dose: 0, 100, 200, 400 PPM IN DRINKING WATER FOR 60 WK, Dose: 0, 100, 200, 400 PPM IN DRINKING WATER FOR 60 WK, Tumor Site: Type of Lesion: ORAL CAVITY: PAPILLOMA, CARCINOMA, ESOPHAGUS: PAPILLOMA, CARCINOMA, FORESTOMACH: PAPILLOMA, CARCINOMA, Tumor Site: Type of Lesion: ORAL CAVITY: PAPILLOMA, CARCINOMA, ESOPHAGUS: PAPILLOMA, CARCINOMA, FORESTOMACH: PAPILLOMA, CARCINOMA) was “active; positive”.

`O=P(OCC(Br)CBr)(OCC(Br)CBr)OCC(Br)CBr` (stereo not drawn) was tested, and the carcinogen call (Species: MOUSE, Strain/Sex: B6C3F1/FEMALE, Route: ORAL, Dose: 0, 500, 1000 PPM IN DIET, Dose: 0, 500, 1000 PPM IN DIET, Tumor Site: Type of Lesion: STOMACH: SQUAMOUS CELL PAPILLOMA OR CARCINOMA, LUNG: ALVEOLAR/BRONCHIOLAR ADENOMA OR CARCINOMA, LIVER: HEPATOCELLULAR AD, Tumor Site: Type of Lesion: STOMACH: SQUAMOUS CELL PAPILLOMA OR CARCINOMA, LUNG: ALVEOLAR/BRONCHIOLAR ADENOMA OR CARCINOMA, LIVER: HEPATOCELLULAR AD) was “active; positive”, the carcinogen call (Species: MOUSE, Strain/Sex: B6C3F1/MALE, Route: ORAL, Dose: 0, 500, 1000 PPM IN DIET, Dose: 0, 500, 1000 PPM IN DIET, Tumor Site: Type of Lesion: STOMACH: SQUAMOUS CELL PAPILLOMA OR CARCINOMA, LUNG: ALVEOLAR/BRONCHIOLAR ADENOMA OR CARCINOMA) was “active; positive” and the carcinogen call (Species: RAT, Strain/Sex: F344/FEMALE, Route: ORAL, Dose: 0, 50, 100 PPM IN DIET, Dose: 0, 50, 100 PPM IN DIET, Tumor Site: Type of Lesion: KIDNEY: TUBULAR CELL ADENOMA) was “active; positive”. The carcinogen call (Species: RAT, Strain/Sex: F344/MALE, Route: ORAL, Dose: 0, 50, 100 PPM IN DIET, Dose: 0, 50, 100 PPM IN DIET, Tumor Site: Type of Lesion: KIDNEY: TUBULAR CELL ADENOMA OR ADENOCARCINOMA) was “active; positive”.

For `[Si]`, the carcinogen call (Species: RAT, Strain/Sex: F344/FEMALE, Route: SUBCUTANEOUS IMPLANT, Dose: 10 X 20 X 0.3 MM SHEETS IMPLANTED INTO 2 SITES IN LATERAL ABDOMINAL REGION AND 1 SITE ON THE BACK (STUDY DURATION: 741 D, Tumor Site: Type of Lesion: IMPLANT SITE: MALIGNANT HISTIOCYTOMA) was “active; positive”.

In the case of `O=C(O)C[C@@H]1NC(=O)[C@H](Cc2ccccc2)NC1=O`, the carcinogen call (Species: MOUSE, Strain/Sex: SWISS/FEMALE, Route: INTRAVESICULAR, Dose: 0, 4-4.4 MG IN CHOLESTEROL PELLET (STUDY DURATION: 26 WK)) was “inactive; negative” and the carcinogen call (Species: MOUSE, Strain/Sex: SWISS/FEMALE, Route: INTRAVESICULAR, Dose: 0, 4-4.4 MG IN CHOLESTEROL PELLET (STUDY DURATION: 56 WK)) was “inactive; negative”.

In the case of `Cc1ccc(O)c(O)c1`, the carcinogen call (Species: RAT, Strain/Sex: F344/FEMALE, Route: ORAL, Dose: 0, 2% IN DIET FOR 104 WK (STUDY DURATION: 104 WK), Tumor Site: Type of Lesion: FORESTOMACH: PAPILLOMA, SQUAMOUS CELL CARCINOMA, GLANDULAR STOMACH: ADENOMA, ADENOCARCINOMA) was “active; positive” and the carcinogen call (Species: RAT, Strain/Sex: F344/MALE, Route: ORAL, Dose: 0, 2% IN DIET FOR 104 WK (STUDY DURATION: 104 WK), Tumor Site: Type of Lesion: FORESTOMACH: PAPILLOMA, SQUAMOUS CELL CARCINOMA, GLANDULAR STOMACH: ADENOMA, ADENOCARCINOMA) was “active; positive”.

With `CC1COCCN1N=O` (stereo not drawn) the carcinogen call (Species: RAT, Strain/Sex: F344/FEMALE, Route: ORAL, Dose: 45 MG/L IN DRINKING WATER FOR 26 WK, Tumor Site: Type of Lesion: LIVER: HEPATOCELLULAR CARCINOMA, HEMANGIOENDOTHELIAL SARCOMA, ESOPHAGUS: PAPILLOMA, CARCINOMA) was “active; positive”.

With `Cc1cc(C)c(S(=O)(=O)O)cc1N=Nc1cc(S(=O)(=O)O)c2ccccc2c1O` the carcinogen call (Species: MOUSE, Strain/Sex: SWISS-WEBSTER/FEMALE, Route: DERMAL, Dose: 0, 1% IN 0.1 ML DISTILLED WATER 1/WK FOR 19.5 MO (STUDY DURATION: 19.5 MO)) was “inactive; negative” and the carcinogen call (Species: MOUSE, Strain/Sex: SWISS-WEBSTER/MALE, Route: DERMAL, Dose: 0, 1% IN 0.1 ML DISTILLED WATER 1/WK FOR 19.5 MO (STUDY DURATION: 19.5 MO)) was “inactive; negative”.

`CCCCNC(=O)n1c(NC(=O)OC)nc2ccccc21` was tested, and the carcinogen call (Species: Mouse, Strain/Sex: CD-1/Female (80/group), Route: Oral, Dose: 0, 500, 1500, 7500 for 37 wk reduced to 5000 ppm in feed for 2 yr, Dose: 0, 500, 1500, 7500 for 37 wk reduced to 5000 ppm in feed for 2 yr, Tumor Site: Type of Lesion: Liver: Hepatocellular adenoma (2/64, 2/60, 7/73, 7/68), Hepatocellular carcinoma (2/64, 7/60, 6/73, 14/68), Combined (4/, Tumor Site: Type of Lesion: Liver: Hepatocellular adenoma (2/64, 2/60, 7/73, 7/68), Hepatocellular carcinoma (2/64, 7/60, 6/73, 14/68), Combined (4/) was “active; positive; purity 99%; additional study details in california epa department of p” and the carcinogen call (Species: Mouse, Strain/Sex: CD-1/Male (80/group), Route: Oral, Dose: 0, 500, 1500, 7500 for 37 wk reduced to 5000 ppm in feed for 2 yr, Dose: 0, 500, 1500, 7500 for 37 wk reduced to 5000 ppm in feed for 2 yr, Tumor Site: Type of Lesion: Liver: Hepatocellular adenoma (9/60, 9/75, 11/73, 10/76), Hepatocellular carcinoma (16/60, 26/75, 41/73, 17/76), Combine, Tumor Site: Type of Lesion: Liver: Hepatocellular adenoma (9/60, 9/75, 11/73, 10/76), Hepatocellular carcinoma (16/60, 26/75, 41/73, 17/76), Combine) was “active; positive; purity 99%; additional study details in california epa department of p”.

In the case of `Cc1c2ccccc2cc2c1ccc1ccccc12`, the carcinogen call (Species: MOUSE, Strain/Sex: ALBINO/FEMALE, Route: DERMAL, Dose: 70 UG IN 0.025 ML ACETONE 2/WK FOR 20 WK, Tumor Site: Type of Lesion: INTEGUMENTARY SYSTEM (SKIN): CARCINOMA) was “active; positive”, the carcinogen call (Species: MOUSE, Strain/Sex: ALBINO/FEMALE, Route: SUBCUTANEOUS, Dose: 0.1 ML OF 1 MG IN TRICAPRYLIN ONCE, Tumor Site: Type of Lesion: INJECTION SITE: SARCOMA) was “active; positive” and the carcinogen call (Species: MOUSE, Strain/Sex: ALBINO/FEMALE, Route: SUBCUTANEOUS, Dose: 0.25, 1.0 MG IN 0.1 ML TRICAPRYLIN ONCE, Tumor Site: Type of Lesion: INJECTION SITE: SARCOMA) was “active; positive”. The carcinogen call (Species: MOUSE, Strain/Sex: C57BL/MALE,FEMALE, Route: SUBCUTANEOUS, Dose: 1 MG IN 0.1 ML ARACHIS OIL 1/WK FOR 10 WK, Tumor Site: Type of Lesion: INJECTION SITE) was “active; positive”, the carcinogen call (Species: RAT, Strain/Sex: ALBINO/MALE, Route: SUBCUTANEOUS, Dose: 2.0 MG IN 0.25 ML TRICAPRYLIN ONCE, Tumor Site: Type of Lesion: INJECTION SITE: SARCOMA) was “active; positive” and the carcinogen call (Species: RAT, Strain/Sex: F344/MALE,FEMALE, Route: SUBCUTANEOUS, Dose: 2 MG IN 0.2 ML PARAFFIN SOLN (TOTAL DOSE 4 MG/RAT), Tumor Site: Type of Lesion: INJECTION SITE: FIBROSARCOMA) was “active; positive”. For the same compound, the carcinogen call (Species: RAT, Strain/Sex: HOLTZMAN/MALE, Route: SUBCUTANEOUS, Dose: 0.25 ML OF 2 MG IN TRICAPRYLIN ONCE, Tumor Site: Type of Lesion: INJECTION SITE: SARCOMA) was “active; positive” and the carcinogen call (Species: RAT, Strain/Sex: LONG-EVANS/MALE, Route: INTRAMUSCULAR, Dose: 2.5 MG IN 0.5 ML SESAME OIL ONCE, Tumor Site: Type of Lesion: INJECTION SITE: SARCOMA) was “active; positive”.

`CCCCCCCCCCCCCC(=O)ON(C(C)=O)c1ccc2c(c1)Cc1ccccc1-2` was tested, and the carcinogen call (Species: RAT, Strain/Sex: F344/MALE, Route: SUBCUTANEOUS, Dose: 10.6 UMOL IN 0.2 ML DMSO-TRIOCTANOIN 1/WK FOR 6 WK, Tumor Site: Type of Lesion: INJECTION SITE: FIBROSARCOMA OR FIBROMYOSARCOMA OR FIBROLIPOSARCOMA) was “active; positive”.

`Oc1cccc(O)c1` was tested, and the carcinogen call (Species: MOUSE, Strain/Sex: B6C3F1/FEMALE, Route: GAVAGE, Dose: 0, 112, 225 MG/KG IN DEIONIZED WATER 5 D/WK FOR 104 WK (STUDY DURATION: 104 WK), Dose: 0, 112, 225 MG/KG IN DEIONIZED WATER 5 D/WK FOR 104 WK (STUDY DURATION: 104 WK)) was “inactive; negative”, the carcinogen call (Species: MOUSE, Strain/Sex: B6C3F1/MALE, Route: GAVAGE, Dose: 0, 112, 225 MG/KG IN DEIONIZED WATER 5 D/WK FOR 104 WK (STUDY DURATION: 104 WK), Dose: 0, 112, 225 MG/KG IN DEIONIZED WATER 5 D/WK FOR 104 WK (STUDY DURATION: 104 WK)) was “inactive; negative” and the carcinogen call (Species: RAT, Strain/Sex: F344/FEMALE, Route: GAVAGE, Dose: 0, 50, 100, 150 MG/KG IN DEIONIZED WATER 5 D/WK FOR 104 WK (STUDY DURATION: 104 WK), Dose: 0, 50, 100, 150 MG/KG IN DEIONIZED WATER 5 D/WK FOR 104 WK (STUDY DURATION: 104 WK)) was “inactive; negative”. For the same compound, the carcinogen call (Species: RAT, Strain/Sex: F344/MALE, Route: GAVAGE, Dose: 0, 112, 225 MG/KG IN DEIONIZED WATER 5 D/WK FOR 104 WK (STUDY DURATION: 104 WK), Dose: 0, 112, 225 MG/KG IN DEIONIZED WATER 5 D/WK FOR 104 WK (STUDY DURATION: 104 WK)) was “inactive; negative”.

— PubChem BioAssay AID1259411 (Chemical Carcinogenesis Research Information System (CCRIS), 2018)
